Assay results from ChEMBL document CHEMBL1148658, “New HIV-1 reverse transcriptase inhibitors based on a tricyclic benzothiophene scaffold: synthesis, resolution, and inhibitory activity” (Bioorg Med Chem Lett, 2006).

Legend:
Assay type in all cases: cell-based
[1] = biological target: Human immunodeficiency virus type 1 reverse transcriptase (Human immunodeficiency virus 1, UniProt Q72547); assay: Inhibition of wild type HIV1 reverse transcriptase in 293T cells
[2] = biological target: Human immunodeficiency virus type 1 reverse transcriptase (Human immunodeficiency virus 1, UniProt Q72547, K103N); assay: Inhibition of HIV1 reverse transcriptase K103N mutant in 293T cells
[3] = biological target: Human immunodeficiency virus type 1 reverse transcriptase (Human immunodeficiency virus 1, UniProt Q72547, Y181C); assay: Inhibition of HIV1 reverse transcriptase Y181C mutant in 293T cells
[4] = biological target: Human immunodeficiency virus type 1 reverse transcriptase (Human immunodeficiency virus 1, UniProt Q72547, Y188C); assay: Inhibition of HIV1 reverse transcriptase Y188C mutant in 293T cells

Structure (SMILES) | IC50 [1] | further results
COC[C@H]1CCCN1C1=C(C(=O)OC)C2(C(=O)OC)Sc3ccccc3C12 (some centres not stated) | 48 µM | 
COC(=O)C1=C(N2CCC2)C2c3ccccc3SC12C(=O)OC (configuration not stated) | > 10 µM | 
CCOC(=O)C1=C(N2CCCC2)[C@H]2c3ccccc3S[C@@]12C(=O)OCC | > 20 µM | 
COC(=O)C1=C(N2CC=CC2)C2c3ccccc3SC12C(=O)OC (configuration not stated) | 5.1 µM | 
COC[C@H]1CCCN1C1=C(C(=O)OC)[C@]2(C(=O)OC)Sc3ccccc3[C@H]12 | 38 µM | 
CC(C)(C)OC(=O)C1=C(N2CCCC2)C2c3ccccc3SC12C(=O)OC(C)(C)C (configuration not stated) | > 20 µM | 
COC[C@H]1CCCN1C1=C(C(=O)OC)[C@@]2(C(=O)OC)Sc3ccccc3[C@@H]12 | > 50 µM | 
COC(=O)C1=C(N2CCCC2)[C@@H]2c3ccccc3S[C@]12C(=O)OC | > 20 µM | 
COC(=O)C1=C(N2CCCCC2)[C@@H]2c3ccccc3S[C@]12C(=O)OC | > 40 µM | 
COC(=O)C1=C(N2CCC[C@@H]2C)[C@H]2c3ccccc3S[C@@]12C(=O)OC | 2.3 µM | 
COC(=O)C1=C(N2CCCC2)[C@H]2c3ccccc3S[C@@]12C(=O)OC | 0.8 µM | 
COC(=O)C1=C(N2CCC[C@H]2C)[C@@H]2c3ccccc3S[C@]12C(=O)OC | 11 µM | 
COC(=O)C1=C(N2CCC[C@@H]2C)[C@@H]2c3ccccc3S[C@]12C(=O)OC | > 25 µM | 
COC(=O)C1=C(N2CCCC2)C2c3ccccc3SC12C(=O)OC (configuration not stated) | 1.2 µM | IC50 [2]: > 30 µM; IC50 [3]: > 30 µM; IC50 [4]: > 30 µM
COC(=O)C1=C(N2CCC[C@H]2C)[C@H]2c3ccccc3S[C@@]12C(=O)OC | 0.5 µM | 
CCOC(=O)C1=C(N2CCCC2)C2c3ccccc3SC12C(=O)OCC (configuration not stated) | > 20 µM | 
COC(=O)C1=C(N2CCCCC2)[C@H]2c3ccccc3S[C@@]12C(=O)OC | 7.7 µM | 
CCOC(=O)C1=C(N2CCCC2)[C@@H]2c3ccccc3S[C@]12C(=O)OCC | > 20 µM | 
COC(=O)C1=C(N2CCCCC2)C2c3ccccc3SC12C(=O)OC (configuration not stated) | 8.9 µM | 
